Laboratory results published in article PMC6010129, “Evaluation of sulphonamide derivatives acting as inhibitors of human carbonic anhydrase isoforms I, II and Mycobacterium tuberculosisβ-class enzyme Rv3273” (Journal of Enzyme Inhibition and Medicinal Chemistry, 2018).

What was measured:
hCA II = biological target: T1, hCA II (Homo sapiens, UniProt P00918); test: stopped-flow CO2 hydrase assay; format: biochemical
T1 construct: gene CA2; cytosolic isoform
Excerpt: stopped-flow CO2 hydrase assay on hCA II

hCA I = biological target: T2, hCA I (Homo sapiens, UniProt P00915); test: stopped-flow CO2 hydrase assay; format: biochemical
T2 construct: gene CA1; cytosolic isoform
Excerpt: stopped-flow CO2 hydrase assay on hCA I

mtCA 3 = biological target: T3, mtCA 3 (Mycobacterium tuberculosis, UniProt P96878); test: biochemical; design: stopped-flow CO2 hydration assay, phenol red absorbance at 557 nm, 15 min pre-incubation, Ki by Cheng-Prusoff
T3 construct: beta-class carbonic anhydrase
Experimental: An Sx.18Mv-R Applied Photophysics (Oxford, UK) stopped-flow instrument has been used to assay the catalytic activity of various CA isozymes for CO2 hydration reaction. Phenol red (at a concentration of 0.2 mM) was used as indicator, working at the absorbance maximum of 557 nm, with 10 mM Hepes (pH 7.5) or 10 mM Tris (pH 8.5) as buffers, and 0.1 M Na2SO4 (for maintaining constant ionic strength, which is not inhibitory against these enzymes), following the CA-catalysed CO2 hydration reaction for a period of 10 s at 25 °C. The CO2 concentrations ranged from 1.7 to 17 mM for the determination of the kinetic parameters and […]. For each inhibitor at least six traces of the initial 5–10% of the reaction have been used for determining the initial rate. The uncatalysed rates were determined in the same manner and subtracted from the total observed rates. Stock solutions of inhibitors (10 mM) were prepared in distilled-deionised […] to 1 nM using the assay buffer. Inhibitor and enzyme solutions were pre-incubated together for 15 min (standard assay at room temperature) prior to assay, in order to allow for the formation of the enzyme–inhibitor complex. The inhibition constant (KI), was obtained by considering the classical Michaelis–Menten equation and the Cheng-Prusoff algorithm by using non-linear least squares fitting as reported earlier. The compounds 5 and 6 reported here were investigated as inhibitors of three CAs involved in crucial physiologic processes and known to act as drug targets, i.e. the human (h) isoforms hCA I and II (belonging to the α-CA class) and the bacterial enzyme mtCA3 from Mycobacterium tuberculosis (a β-class CA) (Table 3). Acetazolamide (AAZ), a clinically used sulphonamide has been employed as standard inhibitor in the assay.

T2 sequence (P00915 2-261): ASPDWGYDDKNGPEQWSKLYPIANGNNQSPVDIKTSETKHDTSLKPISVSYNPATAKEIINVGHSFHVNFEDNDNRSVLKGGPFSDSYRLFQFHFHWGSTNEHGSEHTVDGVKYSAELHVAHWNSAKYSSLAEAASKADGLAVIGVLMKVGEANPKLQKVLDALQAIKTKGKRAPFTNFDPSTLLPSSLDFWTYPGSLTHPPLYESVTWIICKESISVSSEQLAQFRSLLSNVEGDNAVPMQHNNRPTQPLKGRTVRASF
T3 sequence (P96878 entry or part of it): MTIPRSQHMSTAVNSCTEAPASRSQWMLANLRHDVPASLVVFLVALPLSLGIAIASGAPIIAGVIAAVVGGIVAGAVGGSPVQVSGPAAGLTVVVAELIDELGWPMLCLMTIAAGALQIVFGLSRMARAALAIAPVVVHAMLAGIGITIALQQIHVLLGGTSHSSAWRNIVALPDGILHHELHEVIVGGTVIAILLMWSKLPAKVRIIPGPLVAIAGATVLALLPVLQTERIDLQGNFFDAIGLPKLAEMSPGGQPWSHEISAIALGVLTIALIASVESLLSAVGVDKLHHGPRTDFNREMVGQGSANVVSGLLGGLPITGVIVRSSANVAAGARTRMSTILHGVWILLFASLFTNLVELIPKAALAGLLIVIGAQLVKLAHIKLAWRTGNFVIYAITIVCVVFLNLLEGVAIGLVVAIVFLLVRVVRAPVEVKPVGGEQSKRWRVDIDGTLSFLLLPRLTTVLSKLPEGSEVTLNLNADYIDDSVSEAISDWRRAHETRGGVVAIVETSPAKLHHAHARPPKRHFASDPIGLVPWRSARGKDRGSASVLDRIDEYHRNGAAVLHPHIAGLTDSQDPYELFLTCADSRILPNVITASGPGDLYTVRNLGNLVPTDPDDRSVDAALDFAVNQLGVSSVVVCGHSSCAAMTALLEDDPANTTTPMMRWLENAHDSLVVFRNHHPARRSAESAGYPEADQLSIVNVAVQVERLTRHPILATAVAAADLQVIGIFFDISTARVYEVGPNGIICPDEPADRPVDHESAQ

Row | SMILES | Ki (hCA II) | Ki (hCA I) | Ki (mtCA 3)
1 | NS(=O)(=O)c1ccc(NCC(=O)N2N=C(c3ccc(Cl)cc3)CC2c2ccccc2)cc1 (stereo not drawn) [5a, 4-((2-(3-(4-Chlorophenyl)-5-phenyl-4,5-dihydro-1H-pyrazol-1-yl)-2-oxoethyl)amino) benzenesulphonamide] | 282 nM | 306 nM | 1800 nM
2 | NS(=O)(=O)c1ccc(NCC(=O)N2N=C(c3ccc(Cl)cc3)CC2c2ccc(F)cc2)cc1 (stereo not drawn) [5b, 4-((2-(3-(4-Chlorophenyl)-5-(4-fluorophenyl)-4,5-dihydro-1H-pyrazol-1-yl)-2-oxoethyl)amino) benzenesulphonamide] | 500 nM | 441 nM | –
3 | NS(=O)(=O)c1ccc(NCC(=O)N2N=C(c3ccc(Cl)cc3)CC2c2ccc(Br)cc2)cc1 (stereo not drawn) [5c, 4-((2-(3-(4-Chlorophenyl)-5-(4-bromophenyl)-4,5-dihydro-1H-pyrazol-1-yl)-2-oxoethyl)amino) benzenesulphonamide] | 2850 nM | 634 nM | 732 nM
4 | Cc1ccc(C2CC(c3ccc(Cl)cc3)=NN2C(=O)CNc2ccc(S(N)(=O)=O)cc2)cc1 (stereo not drawn) [5d, 4-((2-(3-(4-Chlorophenyl)-5-(4-methylphenyl)-4,5-dihydro-1H-pyrazol-1-yl)-2-oxoethyl)amino)benzenesulphonamide] | 426 nM | 93.4 nM | 175 nM
5 | NS(=O)(=O)c1ccc(NCC(=O)N2N=C(c3ccc(Cl)cc3)CC2c2ccncc2)cc1 (stereo not drawn) [5e, 4-((2-(3-(4-Chlorophenyl)-5-(pyridin-4-yl)-4,5-dihydro-1H-pyrazol-1-yl)-2-oxoethyl)amino) benzenesulphonamide] | 42.3 nM | 175 nM | 138 nM
6 | NS(=O)(=O)c1ccc(NCC(=O)N2N=C(c3ccc(Cl)cc3)CC2c2ccccc2Cl)cc1 (stereo not drawn) [5f, 4-((2-(3-(4-Chlorophenyl)-5-(2-chlorophenyl)-4,5-dihydro-1H-pyrazol-1-yl)-2-oxoethyl)amino)benzenesulphonamide] | 433 nM | 445 nM | 215 nM
7 | NS(=O)(=O)c1ccc(NCC(=O)N2N=C(c3ccc(Cl)cc3)CC2c2ccccc2O)cc1 (stereo not drawn) [5g, 4-((2-(3-(4-Chlorophenyl)-5-(2-hydroxyphenyl)-4,5-dihydro-1H-pyrazol-1-yl)-2-oxoethyl)amino)benzenesulphonamide] | 578 nM | 174 nM | 147 nM
8 | COc1ccc(C2CC(c3ccc(Cl)cc3)=NN2C(=O)CNc2ccc(S(N)(=O)=O)cc2)cc1OC (stereo not drawn) [5h, 4-((2-(3-(4-Chlorophenyl)-5-(3,4-dimethoxyphenyl)-4,5-dihydro-1H-pyrazol-1-yl)-2-oxoethyl)amino)benzenesulphonamide] | 424 nM | 280 nM | 186 nM
9 | NS(=O)(=O)c1ccc(NCC(=O)N2N=C(c3ccc(Cl)cc3)CC2c2cccs2)cc1 (stereo not drawn) [5i, 4-((2-(3-(4-Chlorophenyl)-5-(thiophen-2-yl)-4,5-dihydro-1H-pyrazol-1-yl)-2-oxoethyl)amino)benzenesulphonamide] | 373 nM | 276 nM | 233 nM
10 | NS(=O)(=O)c1ccc(NCC(=O)N2N=C(c3ccc(Cl)cc3)CC2c2c3ccccc3cc3ccccc23)cc1 (stereo not drawn) [5j, 4-((2-(5-(Anthracen-9-yl)-3-(4-chlorophenyl)-4,5-dihydro-1H-pyrazol-1-yl)-2-oxoethyl)amino)benzenesulphonamide] | 2020 nM | 91.8 nM | 157 nM
11 | NS(=O)(=O)c1ccc(NCC(=O)N2N=C(c3ccc(Cl)cc3)CC2c2c[nH]c3ccccc23)cc1 (stereo not drawn) [5k, 4-((2-(3-(4-Chlorophenyl)-5-(1H-indol-3-yl)-4,5-dihydro-1H-pyrazol-1-yl)-2-oxoethyl)amino)benzenesulphonamide] | 392 nM | 440 nM | 127 nM
12 | CC1=NN(C(=O)CNc2ccc(S(N)(=O)=O)cc2)C(c2ccccc2)C1 (stereo not drawn) [5l, 4-((2-(3-Methyl-5-phenyl-4,5-dihydro-1H-pyrazol-1-yl)-2-oxoethyl)amino) benzene sulphonamide] | 810 nM | 760 nM | 1580 nM
13 | COc1ccc(C2CC(C)=NN2C(=O)CNc2ccc(S(N)(=O)=O)cc2)cc1 (stereo not drawn) [5m, 4-((2-(5-(4-Methoxyphenyl)-3-methyl-4,5-dihydro-1H-pyrazol-1-yl)-2-oxoethyl)amino)benzenesulphonamide] | 5550 nM | 2370 nM | > 10000 nM
14 | CC1=NN(C(=O)CNc2ccc(S(N)(=O)=O)cc2)C(c2ccc(Cl)cc2)C1 (stereo not drawn) [5n, 4-((2-(5-(4-Chlorophenyl)-3-methyl-4,5-dihydro-1H-pyrazol-1-yl)-2-oxoethyl)amino)benzenesulphonamide] | 944 nM | 835 nM | 1290 nM
15 | CC1=NN(C(=O)CNc2ccc(S(N)(=O)=O)cc2)C(c2ccc(C)cc2)C1 (stereo not drawn) [5o, 4-((2-(3-Methyl-5-(p-tolyl)-4,5-dihydro-1H-pyrazol-1-yl)-2-oxoethyl)amino)benzene sulphonamide] | 3460 nM | 898 nM | 275 nM
16 | CC1=NN(C(=O)CNc2ccc(S(N)(=O)=O)cc2)C(c2ccc(F)cc2)C1 (stereo not drawn) [5p, 4-((2-(5-(4-Fluorophenyl)-3-methyl-4,5-dihydro-1H-pyrazol-1-yl)-2-oxoethyl)amino)benzenesulphonamide] | 903 nM | 665 nM | 250 nM
17 | CC1=NN(C(=O)CNc2ccc(S(N)(=O)=O)cc2)C(c2ccccc2Cl)C1 (stereo not drawn) [5q, 4-((2-(5-(2-Chlorophenyl)-3-methyl-4,5-dihydro-1H-pyrazol-1-yl)-2-oxoethyl)amino)benzenesulphonamide] | 648 nM | 742 nM | 623 nM
18 | CC1=NN(C(=O)CNc2ccc(S(N)(=O)=O)cc2)C(c2ccccc2O)C1 (stereo not drawn) [5r, 4-((2-(5-(2-Hydroxyphenyl)-3-methyl-4,5-dihydro-1H-pyrazol-1-yl)-2-oxoethyl)amino)benzenesulphonamide] | 83.1 nM | 721 nM | 1590 nM
19 | CC1=NN(C(=O)CNc2ccc(S(N)(=O)=O)cc2)C(c2ccc(O)cc2)C1 (stereo not drawn) [5s, 4-((2(5-(4-Hydroxyphenyl)-3-methyl-4,5-dihydro-1H-pyrazol-1-yl)-2-oxoethyl)amino)benzenesulphonamide] | 73.6 nM | 738 nM | 265 nM
20 | CC1=NN(C(=O)CNc2ccc(S(N)(=O)=O)cc2)C(c2ccc(N(C)C)cc2)C1 (stereo not drawn) [5t] | 5150 nM | 842 nM | 1740 nM
21 | CC1=NN(C(=O)CNc2ccc(S(N)(=O)=O)cc2)C(c2cccs2)C1 (stereo not drawn) [5u, 4-((2-(3-Methyl-5-(thiophen-2-yl)-4,5-dihydro-1H-pyrazol-1-yl)-2-oxoethyl)amino)benzenesulphonamide] | 126 nM | 798 nM | 1450 nM
22 | NS(=O)(=O)c1ccc(NCC(=O)N/N=C/c2ccccc2)cc1 [6a, 4-((2-(2-Benzylidenehydrazinyl)-2-oxoetehyl)amino) benzenesulphonamide] | 549 nM | 220 nM | > 10000 nM
23 | Cc1ccc(C=NNC(=O)CNc2ccc(S(N)(=O)=O)cc2)cc1 [6b, 4-((2-(2-(4-Methylbenzylidene) hydrazinyl)-2-oxoethyl)amino)benzene sulphonamide] | 914 nM | 266 nM | > 10000 nM
24 | NS(=O)(=O)c1ccc(NCC(=O)N/N=C/c2ccccc2O)cc1 [6c, 4-((2-(2-(2-Hydroxybenzylidene)hydrazinyl)-2-oxoethyl)amino) benzenesulphonamide] | 32.1 nM | 54.6 nM | 2150 nM
25 | NS(=O)(=O)c1ccc(NCC(=O)N/N=C/c2ccccn2)cc1 [6d, 4-((2-Oxo-2-(2-(pyridin-2-ylmethylene) hydrazinyl)ethyl)amino) benzenesulphonamide] | 418 nM | 316 nM | > 10000 nM
26 | COc1ccc(/C=N/NC(=O)CNc2ccc(S(N)(=O)=O)cc2)cc1OC [6e, 4-((2-(2-(3,4-Dimethoxybenzylidene)hydrazinyl)-2-oxoethyl)amino) benzenesulphonamide] | 758 nM | 1800 nM | –
27 | COc1ccc(/C=N/NC(=O)CNc2ccc(S(N)(=O)=O)cc2)cc1 [6f, 4-((2-(2-(4-Methoxybenzylidene) hydrazinyl)-2-oxoethyl)amino) benzenesulphonamide] | 703 nM | 648 nM | 2130 nM
28 | NS(=O)(=O)c1ccc(NCC(=O)N/N=C/c2ccc(O)cc2)cc1 [6g, 4-((2-(2-(4-Hydroxybenzylidene)hydrazinyl)-2-oxoethyl)amino) benzenesulphonamide] | 255 nM | 327 nM | –
29 | COc1cc(/C=N/NC(=O)CNc2ccc(S(N)(=O)=O)cc2)cc(OC)c1O [6h, 4-((2-(2-(4-Hydroxy-3,5-dimethoxybenzylidene)hydrazinyl)-2-oxoethyl)amino) benzenesulphonamide] | 483 nM | 292 nM | 2000 nM
